Patent publication US20250255961A1, “METHODS TO STIMULATE IMMUNE RESPONSES TO MUTANT RAS USING NUCLEATED CELLS” (STEMCELL TECHNOLOGIES CANADA INC., priority 2020, published 2025)

Experiments:
[1] = system: K-Ras G12V responder T cells; experiment: IFN-γ ELISPOT: peptide-loaded HLA-A*11+ human PBMCs co-cultured with K-Ras G12V responder T cells; format: cell-based; conditions: Example 5, FIG. 5; HLA-A*11+ human PBMCs SQZ-loaded with 100 μM SLP; listed as K-Ras-G12V^3-42
[2] = system: K-Ras G12V responder T cells; experiment: as above; format: cell-based; conditions: Example 5, FIG. 5; HLA-A*11+ human PBMCs SQZ-loaded with 100 μM SLP
Method: (§1) Human PBMCs from HLA-A*11^+ donor (donor 296) were prepared at a density of 10×10^6/mL, SQZ processed at room temperature through a constriction of 4.5 μm width, 10 μm length and 70 μm depth at 60 psi with 100 μM of the respective K-Ras synthetic long peptide (G12V^1-16, G12V^2-19) or with vehicle control (DMSO) in RPMI medium. Following SQZ-processing, the SQZ-loaded PMBCs were centrifuged, and the supernatant was discarded. The cells were subsequently washed once in R10 medium (RPMI+10% FCS+1% Pen/Strep), then washed twice in CTL medium (supplemented with 1% glutamine), before resuspension in fresh CTL medium (supplemented with 1% glutamine).
2×10^5 SQZ-loaded PBMCs were then placed in co-culture with 5×10^4 K-Ras G12V responder T cells (generated in transgenic mice) in an IFN-γ ELISPOT plate. As a positive control, 10 μM K-Ras G12V^7-16 peptide containing the minimal epitope was added directly to untreated PBMCs and responder cells in the ELISPOT plate (peptide spike). The plate was incubated overnight at 37° C. and then developed/quantified according to manufacturer's instructions.
as §1, with “donor” for “donor (donor 296)”, “constriction with” for “constriction of”, “peptide (K-Ras G12V^3-17, K-Ras G12V^3-42)” for “peptide (G12V^1-16, G12V^2-19)”, “medium. An irrelevant synthetic long peptide (HPV-E7.6) was used as a negative control.” for “medium.”
as §1, with “donor” for “donor (donor 296)”, “10× 10^6/mL,” for “10×10^6/mL,”, “(wild type K-Ras^1-16, G12V^1-16, wild type K-Ras^2-22, or G12V^2-22)” for “(G12V^1-16, G12V^2-19)”
as §1, with “donor” for “donor (donor 296)”, “of a single” for “of the respective”, “peptide (G12V^1-16” for “peptide (G12V^1-16, G12V^2-19)”, “or G12V^2-19), or a combination of two K-Ras synthetic long peptides which are each at 100 μM (G12V^1-16 plus G12D^1-16 or G12V^2-19 plus G12D^1-16) or” for “or with”, “glutamine). […]” for “glutamine).”

Question: How did the “IFN-γ expressing K-Ras-G12V responder T cells upon co-culture” value [1] turn out when “EYKLVVVGAVGVGKSALTIQLIQNHFVDEYDPTIEDSYRK [G12V^3-42, K-Ras G12V synthetic long peptide, residues 3-42]” was run?
Answer: The value was “increased amount”.

Question: What about the “IFN-γ expressing K-Ras-G12V responder T cells upon co-culture” value [2] of the same sequence?
Answer: Its value is “significant increases”.
